Literature values in PMC6172068 (Cancer Science, 2018).

Columns and labels:
[1] = tested on: FLT3 receptors expressing FLT3-TKD D835 mutations; settings: leukemic cells; cited from earlier work
[2] = tested on: relapsed/refractory (R/R) AML; settings: cited from earlier work
FLT3 = settings: preclinical studies; cited from earlier work

## CCc1nc(C(N)=O)c(Nc2ccc(N3CCC(N4CCN(C)CC4)CC3)c(OC)c2)nc1NC1CCOCC1 [gilteritinib]
[1]
  inhibition of FLT3 receptors expressing FLT3-TKD D835 mutations: strongly inhibited
[2]; doses ≥80 mg/d
  median OS duration: 31 weeks
  overall response rate (ORR): 52%
[2]; once-daily oral, R/R AML, USA, Germany and Italy
  maximum tolerated dose (MTD): 300 mg/day
FLT3
  inhibition of FLT3: robust inhibitor
